The text below walks through data of ChEMBL document CHEMBL6078713, “Synthesis and mechanistic studies of 4-aminoquinoline-Isatin molecular hybrids and Schiff's bases as promising antimicrobial agents” (Eur J Med Chem, 2025).

In brackets after ≈: the same amount, converted by molar mass. Activity calls are given as the source filed them. No cut-off for these calls is given here.

The test system of assay [1] is Enterococcus faecalis. In words: Antibacterial activity against Enterococcus faecalis MTCC 439 assessed as diameter of zone of inhibition at 500 ug/ml by agar disk diffusion method. The format is functional. As to conditions: read-out: DIZ.
Assay [2] relates to Bacillus subtilis. Kind of assay: Antibacterial activity against Bacillus subtilis MTCC 736 assessed as diameter of zone of inhibition at 500 ug/ml by agar disk diffusion method. The format is functional. As to conditions: read-out: DIZ.
Assay [3] concerns Staphylococcus aureus. In words: Antibacterial activity against Staphylococcus aureus MTCC 902 assessed as diameter of zone of inhibition at 500 ug/ml by agar disk diffusion method. The format is functional. The conditions noted are these: read-out: DIZ. On the technique in general: In agar diffusion tests the substance spreads into inoculated agar from a disc or well.
For a further assay, the system named is Pseudomonas aeruginosa. In words: Antibacterial activity against Pseudomonas aeruginosa MTCC 2453 assessed as diameter of zone of inhibition at 500 ug/ml by agar disk diffusion method. The format is functional. The conditions noted are these: read-out: DIZ.
Assay [4] relates to Salmonella typhi. In words: Antibacterial activity against Salmonella typhi assessed as diameter of zone of inhibition at 500 ug/ml by agar disk diffusion method. The format is functional, Salmonella enterica subsp. enterica serovar Typhi. The conditions noted are these: Salmonella enterica, read-out: DIZ.
The test system of assay [5] is Enterococcus faecalis. In words: Antibacterial activity against Enterococcus faecalis MTCC 439 assessed as inhibition of bacterial growth incubated overnight by serial dilution based spectrophotometer. Type of assay: functional.
Assay [6] concerns Bacillus subtilis. In words: Antibacterial activity against Bacillus subtilis MTCC 736 assessed as inhibition of bacterial growth incubated overnight by serial dilution based spectrophotometer. The format is functional.
The subject of assay [7] is Salmonella typhi. Kind of assay: Antibacterial activity against Salmonella typhi assessed as inhibition of bacterial growth incubated overnight by serial dilution based spectrophotometer. The format is functional, Salmonella enterica subsp. enterica serovar Typhi. As to conditions: Salmonella enterica.
Assay [8] deals with Salmonella typhi. In words: Synergistic antibacterial activity against Salmonella typhi assessed as inhibition of bacterial growth incubated overnight in presence of LT-SB5 by serial dilution based spectrophotometer. As to conditions: Salmonella enterica.
Assay [9] has as its system Salmonella typhi. In words: Synergistic antibacterial activity against Salmonella typhi assessed as inhibition of bacterial growth incubated overnight in presence of LT-SB7 by serial dilution based spectrophotometer. As to conditions: Salmonella enterica.
The subject of assay [10] is Salmonella typhi. In words: Synergistic antibacterial activity against Salmonella typhi assessed as inhibition of bacterial growth incubated overnight in presence of LT-SB23 by serial dilution based spectrophotometer. The conditions noted are these: Salmonella enterica.
Assay [11] deals with Staphylococcus aureus. In words: Bacteriostatic activity against Staphylococcus aureus MTCC 902 assessed as reduction in bacterial growth measured upto 24 hrs by absorbance based assay. The format is functional, organism-based.
The test system of a further assay is Escherichia coli. In words: microbe, parasite or virus in culture. As to conditions: MTCC 443.
Assay [12] concerns Enterococcus faecalis. In words: microbe, parasite or virus in culture. The conditions noted are these: MTCC 439.
Description: Synergistic antibacterial activity against Enterococcus faecalis MTCC 439 assessed as inhibition of bacterial growth incubated overnight in presence of LT-SB5 by serial dilution based spectrophotometer
Assay [13] deals with Enterococcus faecalis. Kind of assay: microbe, parasite or virus in culture. As to conditions: MTCC 439. The source holds these as a separate data set.
Description: Synergistic antibacterial activity against Enterococcus faecalis MTCC 439 assessed as inhibition of bacterial growth incubated overnight in presence of LT-SB7 by serial dilution based spectrophotometer
Assay [14] concerns Enterococcus faecalis. Kind of assay: microbe, parasite or virus in culture. As to conditions: MTCC 439. This is another data set of the same source.
Description: Synergistic antibacterial activity against Enterococcus faecalis MTCC 439 assessed as inhibition of bacterial growth incubated overnight in presence of LT-SB23 by serial dilution based spectrophotometer
Assay [15] has as its system Enterococcus faecalis. Kind of assay: microbe, parasite or virus in culture. The conditions noted are these: MTCC 439. The source holds these as a separate data set.
Description: Synergistic antibacterial activity against Enterococcus faecalis MTCC 439 assessed as inhibition of bacterial growth incubated overnight in presence of SB5 by serial dilution based spectrophotometer
The subject of assay [16] is Bacillus subtilis. Kind of assay: microbe, parasite or virus in culture. The conditions noted are these: MTCC 736.
Description: Synergistic antibacterial activity against Bacillus subtilis MTCC 736 assessed as inhibition of bacterial growth incubated overnight in presence of LT-SB5 by serial dilution based spectrophotometer
Assay [17] relates to Bacillus subtilis. In words: microbe, parasite or virus in culture. The conditions noted are these: MTCC 736. The source holds these as a separate data set.
Description: Synergistic antibacterial activity against Bacillus subtilis MTCC 736 assessed as inhibition of bacterial growth incubated overnight in presence of LT-SB7 by serial dilution based spectrophotometer
Assay [18] has as its system Bacillus subtilis. Kind of assay: microbe, parasite or virus in culture. As to conditions: MTCC 736. This is another data set of the same source.
Description: Synergistic antibacterial activity against Bacillus subtilis MTCC 736 assessed as inhibition of bacterial growth incubated overnight in presence of LT-SB23 by serial dilution based spectrophotometer
For assay [19], the system named is Bacillus subtilis. Kind of assay: microbe, parasite or virus in culture. The conditions noted are these: MTCC 736. This is another data set of the same source.
Description: Synergistic antibacterial activity against Bacillus subtilis MTCC 736 assessed as inhibition of bacterial growth incubated overnight in presence of SB9 by serial dilution based spectrophotometer

Description for Escherichia coli: Synergistic antibacterial activity against Escherichia coli MTCC 443 assessed as inhibition of bacterial growth incubated overnight in presence of SB5 by serial dilution based spectrophotometer

Consider `O=C(O)c1cn(C2CC2)c2cc(N3CCNCC3)c(F)cc2c1=O` [CIPROFLOXACIN], for which the zone of inhibition at 500 µg/mL with Enterococcus faecalis [1] turned out to be 18 mm; in the assay on Bacillus subtilis [2], 22 mm; with Staphylococcus aureus [3], 19 mm; in the assay on Pseudomonas aeruginosa, 24 mm; with Salmonella typhi [4], 18 mm. The MIC in the assay on Enterococcus faecalis [5] was 0.5 µg/mL (≈ 1.51 µM); in the assay with Bacillus subtilis [6], 1 µg/mL (≈ 3.02 µM); in the assay with Salmonella typhi [7], 0.5 µg/mL (≈ 1.51 µM); with Salmonella typhi [8] it was 0.031 µg/mL; in the assay on Salmonella typhi [9] it was 0.031 µg/mL; with Salmonella typhi [10], 0.031 µg/mL. The MIC in the assay on Escherichia coli came out at 0.062 µg/mL (≈ 0.187 µM); against Enterococcus faecalis [12] it was 0.5 µg/mL (≈ 1.51 µM); against Enterococcus faecalis [13], 0.125 µg/mL (≈ 0.377 µM); in the assay with Enterococcus faecalis [14], 0.125 µg/mL (≈ 0.377 µM); in the assay with Enterococcus faecalis [15], 0.5 µg/mL (≈ 1.51 µM); in the assay on Bacillus subtilis [16], 1 µg/mL (≈ 3.02 µM). Further, the MIC is 0.25 µg/mL (≈ 0.754 µM) against Bacillus subtilis [17], 1 µg/mL (≈ 3.02 µM) in the assay with Bacillus subtilis [18] and 0.5 µg/mL (≈ 1.51 µM) against Bacillus subtilis [19]. The result with Staphylococcus aureus [11] was Active.
